According to patent publication US20250223268A1, “4-Methylsulfonylbenzamide Compound, Preparation Method, Herbicidal Composition And Use” (Jiangsu Flag Chemical Industry Co., Ltd., priority 2022, published 2025):

Legend:
Experiment in all cases: Greenhouse herbicidal activity assay, post-emergence
Type in all cases: in vivo
[1] = system: Eclipta prostrata; conditions: Post-emergence test, rate 150 g a.i./hm^2, grade by fresh weight inhibition rate; for pest or weed control at 150 g/ha: Eclipta prostrata, read-out: Control efficacy grade, Eclipta prostrata
Method in brief: (§1)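 Weeds and crops grown in pots of nutrient soil in a growth chamber to the 3-6 leaf stage, then foliar-sprayed and air-dried. Fresh weight inhibition scored 14-21 days after treatment and graded A (≥80%) through E (<20%).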

[2] = system: Leptochloa chinensis; conditions: Post-emergence test, rate 150 g a.i./hm^2, grade by fresh weight inhibition rate; for pest or weed control at 150 g/ha: Dinebra chinensis, read-out: Control efficacy grade, Leptochloa chinensis
Method in brief: as §1

[3] = system: Echinochloa crusgalli; conditions: Post-emergence test, rate 150 g a.i./hm^2, grade by fresh weight inhibition rate; for pest or weed control at 150 g/ha: Echinochloa crus-galli, read-out: Control efficacy grade, Echinochloa crusgalli
Method in brief: as §1

[4] = system: Cyperus iria; conditions: Post-emergence test, rate 150 g a.i./hm^2, grade by fresh weight inhibition rate; for pest or weed control at 150 g/ha: Cyperus iria, read-out: Control efficacy grade, Cyperus iria
Method in brief: as §1

[5] = system: Digitaria sanguinalis; conditions: Post-emergence test, rate 150 g a.i./hm^2, grade by fresh weight inhibition rate; for pest or weed control at 150 g/ha: Digitaria sanguinalis, read-out: Control efficacy grade, Digitaria sanguinalis
Method in brief: as §1

Structure (SMILES)	Control efficacy grade, Eclipta prostrata [1]	Control efficacy grade, Leptochloa chinensis [2]	Control efficacy grade, Echinochloa crusgalli [3]	Control efficacy grade, Cyperus iria [4]	Control efficacy grade, Digitaria sanguinalis [5]	pest or weed control at 150 g/ha [1]	pest or weed control at 150 g/ha [2]	pest or weed control at 150 g/ha [3]	pest or weed control at 150 g/ha [4]	pest or weed control at 150 g/ha [5]
Cn1ncnc1NC(=O)c1ccc(S(C)(=O)=O)c([S+]([O-])CC2CC2)c1Cl (single isomer, unassigned) [Compound 2-29]	A (Fresh weight inhibition rate≥80% to 100%)	A (Fresh weight inhibition rate≥80% to 100%)	A (Fresh weight inhibition rate≥80% to 100%)	A (Fresh weight inhibition rate≥80% to 100%)	A (Fresh weight inhibition rate≥80% to 100%)					
Cn1ncnc1NC(=O)c1ccc(S(C)(=O)=O)c([S+]([O-])CC2CC2)c1Cl (single isomer, unassigned) [Compound 2-30]	A (Fresh weight inhibition rate≥80% to 100%)	A (Fresh weight inhibition rate≥80% to 100%)	A (Fresh weight inhibition rate≥80% to 100%)	A (Fresh weight inhibition rate≥80% to 100%)	A (Fresh weight inhibition rate≥80% to 100%)					
CCC(C)S(=O)(=O)c1c(S(C)(=O)=O)ccc(C(=O)Nc2nnc(C)o2)c1Cl (single isomer, unassigned) [Compound 3-25]	A (Fresh weight inhibition rate≥80% to 100%)	A (Fresh weight inhibition rate≥80% to 100%)	A (Fresh weight inhibition rate≥80% to 100%)	A (Fresh weight inhibition rate≥80% to 100%)	A (Fresh weight inhibition rate≥80% to 100%)					
CCC(C)Sc1c(S(C)(=O)=O)ccc(C(=O)Nc2nnco2)c1Cl (single isomer, unassigned) [Compound 3-283]	A (Fresh weight inhibition rate≥80% to 100%)	A (Fresh weight inhibition rate≥80% to 100%)	A (Fresh weight inhibition rate≥80% to 100%)	A (Fresh weight inhibition rate≥80% to 100%)	A (Fresh weight inhibition rate≥80% to 100%)					
CC(C)[S+]([O-])c1c(S(C)(=O)=O)ccc(C(=O)Nc2nnc(C3CC3)o2)c1Cl (single isomer, unassigned) [Compound 3-622]	A (Fresh weight inhibition rate≥80% to 100%)	A (Fresh weight inhibition rate≥80% to 100%)	A (Fresh weight inhibition rate≥80% to 100%)	A (Fresh weight inhibition rate≥80% to 100%)	A (Fresh weight inhibition rate≥80% to 100%)					
CC(C)[S+]([O-])c1c(S(C)(=O)=O)ccc(C(=O)Nc2nnc(C3CC3)o2)c1Cl (single isomer, unassigned) [Compound 3-623]	A (Fresh weight inhibition rate≥80% to 100%)	A (Fresh weight inhibition rate≥80% to 100%)	A (Fresh weight inhibition rate≥80% to 100%)	A (Fresh weight inhibition rate≥80% to 100%)	A (Fresh weight inhibition rate≥80% to 100%)					
CCCSc1c(S(C)(=O)=O)ccc(C(=O)Nc2nnnn2C)c1Cl [Compound 1-1, 2-chloro-N-(1-methyl-1H-tetrazol-5-yl)-4-(methylsulfonyl)-3-(propylthio)benzamide]						80 to 100%	80 to 100%	80 to 100%	80 to 100%	80 to 100%
CC(C)Sc1c(S(C)(=O)=O)ccc(C(=O)Nc2nnnn2C)c1Cl [Compound 1-6]	A (Fresh weight inhibition rate≥80% to 100%)	A (Fresh weight inhibition rate≥80% to 100%)	A (Fresh weight inhibition rate≥80% to 100%)	A (Fresh weight inhibition rate≥80% to 100%)	A (Fresh weight inhibition rate≥80% to 100%)					
CCCCSc1c(S(C)(=O)=O)ccc(C(=O)Nc2nnnn2C)c1Cl [Compound 1-11]	A (Fresh weight inhibition rate≥80% to 100%)	A (Fresh weight inhibition rate≥80% to 100%)	A (Fresh weight inhibition rate≥80% to 100%)	A (Fresh weight inhibition rate≥80% to 100%)	A (Fresh weight inhibition rate≥80% to 100%)					
Cn1nnnc1NC(=O)c1ccc(S(C)(=O)=O)c(SCC2CC2)c1Cl [Compound 1-27]	A (Fresh weight inhibition rate≥80% to 100%)	A (Fresh weight inhibition rate≥80% to 100%)	A (Fresh weight inhibition rate≥80% to 100%)	A (Fresh weight inhibition rate≥80% to 100%)	A (Fresh weight inhibition rate≥80% to 100%)					
Cn1nnnc1NC(=O)c1ccc(S(C)(=O)=O)c(SC2CC2)c1Cl [Compound 1-32]	A (Fresh weight inhibition rate≥80% to 100%)	A (Fresh weight inhibition rate≥80% to 100%)	A (Fresh weight inhibition rate≥80% to 100%)	A (Fresh weight inhibition rate≥80% to 100%)	A (Fresh weight inhibition rate≥80% to 100%)					
Cn1nnnc1NC(=O)c1ccc(S(C)(=O)=O)c(SCC(F)(F)F)c1Cl [Compound 1-52]	A (Fresh weight inhibition rate≥80% to 100%)	A (Fresh weight inhibition rate≥80% to 100%)	A (Fresh weight inhibition rate≥80% to 100%)	A (Fresh weight inhibition rate≥80% to 100%)	A (Fresh weight inhibition rate≥80% to 100%)					
Cn1nnnc1NC(=O)c1ccc(S(C)(=O)=O)c(S(=O)(=O)CC(F)(F)F)c1Cl [Compound 1-56]	A (Fresh weight inhibition rate≥80% to 100%)	A (Fresh weight inhibition rate≥80% to 100%)	A (Fresh weight inhibition rate≥80% to 100%)	A (Fresh weight inhibition rate≥80% to 100%)	A (Fresh weight inhibition rate≥80% to 100%)					
C=CCSc1c(S(C)(=O)=O)ccc(C(=O)Nc2nnnn2C)c1Cl [Compound 1-67]	A (Fresh weight inhibition rate≥80% to 100%)	A (Fresh weight inhibition rate≥80% to 100%)	A (Fresh weight inhibition rate≥80% to 100%)	A (Fresh weight inhibition rate≥80% to 100%)	A (Fresh weight inhibition rate≥80% to 100%)					
CCn1nnnc1NC(=O)c1ccc(S(C)(=O)=O)c([S+]([O-])C(C)C)c1Cl (stereo not drawn) [Compound 1-93, 2-chloro-N-(1-ethyl-1H-tetrazol-5-yl)-3-(isopropylsulfinyl)-4-(methylsulfonyl)benzamide]						80 to 100%	80 to 100%	80 to 100%	80 to 100%	80 to 100%
